# Assay results taken from article PMC7948422, “Repurposing p97 inhibitors for chemical modulation of the bacterial ClpB–DnaK bichaperone system” (The Journal of Biological Chemistry, 2020).
# What was measured:
# [1] = system: ClpB W462F, W543F, W462F/W543F; assay: Basal ATPase activity of ClpB Trp/Phe variants; format: biochemical, Escherichia coli; conditions: absence of casein
# Protocol: To determine the ATPase activity, ClpB was diluted to 28 μg/ml (49-nM hexamer) in buffer C (50-mM Tris-HCl, pH 7.4, 20-mM MgCl2, 1-mM EDTA, 0.5-mM tris(2-carboxyethyl)phosphine [TCEP]). In some experiments, the ClpB solution was supplemented with 17.4 μg/ml (10 μM) κ-casein. The ClpB aliquots (18 μl) were mixed with 1 μl of the investigated compounds at different concentrations in 100% DMSO or with DMSO as a control. A sample without ClpB was used as a baseline control. After a 10-min preincubation at 37 or 45 °C, the ATP hydrolysis reaction was initiated by adding 1 μl of 100-mM ATP. The samples were incubated for 60 min (basal ClpB activity in the absence of κ-casein) or 15 min (in the presence of κ-casein) at 37 °C or 30 min at 45 °C in the absence of casein. For the E678Q ClpB variant, the incubation time in the presence of κ-casein was 60 min. After incubation, 15 μl of each sample was mixed with 200 μl of the ammonium molybdate/malachite green reagent ([67]) dispensed into a 96-well plate, followed by an addition of 30 μl of 34% sodium citrate ([68]). The plate was agitated inside a Synergy H1 reader (BioTek, Winooski, VT) for 15 min at room temperature, and the samples’ absorbance was measured at 630 nm. The readouts for ClpB-containing samples were corrected for absorbance of samples without ClpB, to account for nonenzymatic production of inorganic phosphate. […]
# [2] = system: p97; set-up: method as in PMID 25685910; conditions: cited from earlier work
# [3] = biological target: T1, DnaK NBD (Escherichia coli, UniProt P0A6Y8); assay: DnaK NBD ATPase activity assay; format: biochemical; conditions: 100 µM DBeQ, 37 °C
# T1 construct: the NBD of E. coli DnaK (residues 1–388); His-tag (pET28a) (C); made in house; host or cells: E. coli BL21(DE3)
# T1 sequence (P0A6Y8 1-388): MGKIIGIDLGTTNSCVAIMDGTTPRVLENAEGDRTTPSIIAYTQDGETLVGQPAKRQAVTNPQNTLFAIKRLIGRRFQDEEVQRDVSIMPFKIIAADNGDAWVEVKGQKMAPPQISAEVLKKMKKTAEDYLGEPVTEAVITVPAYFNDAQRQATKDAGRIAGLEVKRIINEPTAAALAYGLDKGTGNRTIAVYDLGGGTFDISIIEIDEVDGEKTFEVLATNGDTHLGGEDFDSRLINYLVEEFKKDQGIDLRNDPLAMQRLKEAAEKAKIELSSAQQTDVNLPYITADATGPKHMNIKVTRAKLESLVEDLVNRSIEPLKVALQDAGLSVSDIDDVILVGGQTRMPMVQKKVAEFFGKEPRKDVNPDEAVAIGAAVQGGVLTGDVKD
# Protocol: To determine the ATPase activity of DnaK, 18 μl of DnaK solution or DnaK NBD solution prepared in buffer C was mixed with 1 μl of the investigated compounds or DMSO as a control. Samples without DnaK were used as control blanks. The samples were preincubated for 10 min at 37 °C. The reaction was initiated by adding 1 μl of 100-mM ATP bringing the final concentration of DnaK to 1.1 μM or DnaK NBD to 3.4 μM. The samples were incubated at 37 °C for 70 min for DnaK or 75 min for NBD. The concentration of inorganic phosphate produced from ATP in the presence of DnaK was determined as described above for ClpB.
# [4] = biological target: T2, ClpB E279Q/E678Q (Escherichia coli, UniProt P63284, E279Q/E678Q); assay: FITC-casein fluorescence anisotropy titration with ClpB E279Q/E678Q; format: binding
# T2 construct: made in house
# Protocol: To monitor interactions between casein and ClpB, we used FITC-casein and the substrate-trapping ClpB E279Q/E678Q variant ([52], [73]). The titration of FITC-casein with ClpB E279Q/E678Q in the presence of ATP or ADP and the fluorescence anisotropy measurements were performed as previously described ([65]).
# [5] = biological target: T1, DnaK NBD; assay: Surface plasmon resonance, immobilized DnaK NBD; format: binding
# Protocol: ClpB, DnaK, and the NBD of DnaK were extensively dialyzed against the SPR buffer (20-mM Hepes, pH 7.4, 150-mM NaCl, 20-mM MgCl2, 1-mM EDTA, 1-mM DTT). After dialysis, the protein concentration was determined by the Bradford method. The DBeQ–protein interactions were studied using a Biacore T200 instrument (GE Healthcare) at 25 °C. The proteins were diluted to 300 μg/ml in 10-mM sodium acetate buffer (pH 5 for ClpB DnaK or pH 4 for NBD) and immobilized on HC1500M sensor chips (Xantec) by standard amine coupling chemistry as described previously ([70]). A reference flow cell was created by ethyl(dimethylaminopropyl) carbodiimide/N-hydroxysuccinimide activation followed by quenching with 1 M ethanolamine (pH 9.0). Solvent correction curves were obtained at the beginning and end and after every 50 injection cycles by injecting varying DMSO concentrations (4.0, 4.4, 4.6, 4.8, 5.0, 5.2, 5.4, and 5.9% [v/v]). […]
# Binding isotherms were obtained with the ligand diluted to different concentrations in the SPR running buffer HBSMTD (20-mM Hepes, pH 7.4, 140-mM NaCl, 20-mM MgCl2, 5% (v/v) DMSO, 0.005% (v/v) Tween-20). […] The dissociation constants determined from those experiments were ∼20 μM for ATPγS and ∼2 mM for adenosine. […]
# The resulting sensorgrams were analyzed using Biacore T200 Evaluation Software v3.0 according to the following procedure. […]
# [6] = biological target: T3, ClpB (Escherichia coli, UniProt P63284); assay: Pilot chemical library screen of ClpB ATPase (BioMol Green); format: biochemical; conditions: 388 bioactive compounds, in the presence of 25 μM κ-casein
# T3 construct: made in house
# Protocol: An absorbance-based assay for ClpB ATPase activity was developed by using BioMol Green Reagent (Enzo Life Sciences, Farmington, NY) for screening in a 384-microplate–based format. The optimized assay conditions were as follows: ClpB (150 nM), ATP ([…]), and κ-casein (25 μM) in 100-mM Tris/HCl, pH 8, 10-mM MgCl2, 1-mM DTT, and 1-mM EDTA. The samples were incubated for 10 min at 37 °C, and the ATP hydrolysis reaction was terminated by adding 80 μl of BIOMOL Green. Absorbance at 620 nm was measured with a PerkinElmer EnSpire. The optimized assay was used to screen compounds drawn from Selleck Bioactive library (1900 compounds; Selleck Chemicals, Houston, TX) in the presence or absence of κ-casein.
smiles,measurement,setting,value
"c1ccc(CNc2nc(NCc3ccccc3)c3ccccc3n2)cc1 [DBeQ, N^2,N^4-dibenzylquinazoline-2,4-diamine]",inhibition of basal ATPase of Trp/Phe ClpB variants,[1],became sensitive to inhibition
same,IC50,[2],~3 µM
same,effect on ATPase activity of isolated DnaK NBD,[3],did not inhibit
same,Kd,[4],0.0785 µM
same,effect on ATP-dependent binding of casein to ClpB,[4]; 80-μM DBeQ,did not inhibit
same,Hill number of ClpB–FITC-casein binding with DBeQ,"[4]; 80-μM DBeQ, 5-mM ATP",1.48
same,saturation signal of ClpB–FITC-casein binding with DBeQ,"[4]; 80-μM DBeQ, 5-mM ATP",0.11
same,Kd,[5],95 ± 16 µM
same,"Bmax (SPR signal at saturation), DnaK NBD",[5]; SPR,1.98 ± 0.20
same,candidate ClpB ATPase inhibitor in pilot screen,[6],candidate ClpB ATPase inhibitor
